The structures appear in SMILES notation. pEC50: −log10 of the molar value.

Two compounds from PMC5814754, “Quantitative, Wide-Spectrum Kinase Profiling in Live Cells for Assessing the Effect of Cellular ATP on Target Engagement” (Cell Chemical Biology, 2018) can be followed below.

What all share (assay): Apparent affinity (EC50) of energy transfer probes by titration onto live HEK293 cells expressing kinase/Nluc fusions (Table S1)
Common to all, as to format: binding

The target in assay [1] is full-length kinase/Nluc fusion proteins (Homo sapiens, UniProt Q02156). The settings on record: PRKCE, Nluc C; read-out: Probe EC50.
In assay [2] the target is full-length kinase/Nluc fusion proteins (Homo sapiens, UniProt Q12852). The settings on record: MAP3K12, Nluc N; read-out: Probe EC50.
Sequence of full-length kinase/Nluc fusion proteins (Homo sapiens, UniProt Q12852) (Q12852 whole entry, the tested form may be a part): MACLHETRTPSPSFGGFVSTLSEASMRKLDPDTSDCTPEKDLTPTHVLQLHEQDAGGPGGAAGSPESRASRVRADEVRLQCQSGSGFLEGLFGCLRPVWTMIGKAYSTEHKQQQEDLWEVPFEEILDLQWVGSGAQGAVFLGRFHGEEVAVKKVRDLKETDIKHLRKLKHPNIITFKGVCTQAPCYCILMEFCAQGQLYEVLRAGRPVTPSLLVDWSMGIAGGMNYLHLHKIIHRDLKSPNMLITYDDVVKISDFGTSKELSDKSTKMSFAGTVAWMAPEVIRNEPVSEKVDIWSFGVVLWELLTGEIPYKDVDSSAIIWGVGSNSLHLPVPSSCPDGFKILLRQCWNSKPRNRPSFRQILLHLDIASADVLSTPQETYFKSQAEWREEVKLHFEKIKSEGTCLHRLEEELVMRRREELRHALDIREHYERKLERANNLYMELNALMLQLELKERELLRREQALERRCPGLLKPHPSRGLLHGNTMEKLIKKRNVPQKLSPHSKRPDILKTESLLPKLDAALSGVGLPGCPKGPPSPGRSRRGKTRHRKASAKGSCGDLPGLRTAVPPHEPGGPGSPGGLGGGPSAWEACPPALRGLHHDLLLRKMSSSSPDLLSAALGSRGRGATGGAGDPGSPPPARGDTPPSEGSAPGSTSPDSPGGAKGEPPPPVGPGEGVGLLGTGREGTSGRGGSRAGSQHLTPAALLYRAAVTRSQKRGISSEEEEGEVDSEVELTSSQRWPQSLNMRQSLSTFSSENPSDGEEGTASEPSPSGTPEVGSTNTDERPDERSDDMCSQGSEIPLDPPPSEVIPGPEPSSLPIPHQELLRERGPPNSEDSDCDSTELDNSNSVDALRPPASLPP
For assay [3], the target named is full-length kinase/Nluc fusion proteins (Homo sapiens, UniProt P31152). The settings on record: MAPK4, Nluc N; read-out: Probe EC50.
Sequence of full-length kinase/Nluc fusion proteins (Homo sapiens, UniProt P31152) (P31152 whole entry, the tested form may be a part): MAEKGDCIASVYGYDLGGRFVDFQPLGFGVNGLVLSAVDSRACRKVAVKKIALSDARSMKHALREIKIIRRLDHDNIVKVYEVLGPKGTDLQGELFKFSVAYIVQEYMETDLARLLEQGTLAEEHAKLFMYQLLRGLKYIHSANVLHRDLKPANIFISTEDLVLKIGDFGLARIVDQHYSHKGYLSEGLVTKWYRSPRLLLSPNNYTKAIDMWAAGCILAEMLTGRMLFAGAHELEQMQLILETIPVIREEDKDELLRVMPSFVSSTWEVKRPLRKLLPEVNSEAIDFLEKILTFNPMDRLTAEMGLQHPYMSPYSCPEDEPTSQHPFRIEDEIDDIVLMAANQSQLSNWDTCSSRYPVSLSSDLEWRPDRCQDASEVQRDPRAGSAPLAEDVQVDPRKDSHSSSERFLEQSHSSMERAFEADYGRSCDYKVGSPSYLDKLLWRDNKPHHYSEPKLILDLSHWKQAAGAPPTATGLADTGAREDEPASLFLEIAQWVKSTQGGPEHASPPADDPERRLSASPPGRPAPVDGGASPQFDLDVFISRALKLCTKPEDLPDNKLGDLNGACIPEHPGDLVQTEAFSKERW
For assay [4], the target named is full-length kinase/Nluc fusion proteins (Homo sapiens, UniProt O43283). The settings on record: MAP3K13, Nluc N; read-out: Probe EC50.
In assay [5] the target is full-length kinase/Nluc fusion proteins (Homo sapiens, UniProt Q02779). The settings on record: MAP3K10, Nluc N; read-out: Probe EC50.
The target of assay [6] is full-length kinase/Nluc fusion proteins (Homo sapiens, UniProt O96013). The settings on record: PAK4, Nluc C; read-out: Probe EC50.
For assay [7], the target named is full-length kinase/Nluc fusion proteins (Homo sapiens, UniProt Q96PY6). The settings on record: NEK1, Nluc N; read-out: Probe EC50.
Assay [8] concerns the target full-length kinase/Nluc fusion proteins (Homo sapiens, UniProt P53667). To be noted: LIMK1, Nluc C; read-out: Probe EC50.
The target in assay [9] is full-length kinase/Nluc fusion proteins (Homo sapiens, UniProt Q96L34). The settings on record: MARK4, Nluc N; read-out: Probe EC50.
In assay [10] the target is full-length kinase/Nluc fusion proteins (Homo sapiens, UniProt P21802). The settings on record: FGFR2, Nluc C; read-out: Probe EC50.
Sequence of full-length kinase/Nluc fusion proteins (Homo sapiens, UniProt P21802) (P21802 22-821): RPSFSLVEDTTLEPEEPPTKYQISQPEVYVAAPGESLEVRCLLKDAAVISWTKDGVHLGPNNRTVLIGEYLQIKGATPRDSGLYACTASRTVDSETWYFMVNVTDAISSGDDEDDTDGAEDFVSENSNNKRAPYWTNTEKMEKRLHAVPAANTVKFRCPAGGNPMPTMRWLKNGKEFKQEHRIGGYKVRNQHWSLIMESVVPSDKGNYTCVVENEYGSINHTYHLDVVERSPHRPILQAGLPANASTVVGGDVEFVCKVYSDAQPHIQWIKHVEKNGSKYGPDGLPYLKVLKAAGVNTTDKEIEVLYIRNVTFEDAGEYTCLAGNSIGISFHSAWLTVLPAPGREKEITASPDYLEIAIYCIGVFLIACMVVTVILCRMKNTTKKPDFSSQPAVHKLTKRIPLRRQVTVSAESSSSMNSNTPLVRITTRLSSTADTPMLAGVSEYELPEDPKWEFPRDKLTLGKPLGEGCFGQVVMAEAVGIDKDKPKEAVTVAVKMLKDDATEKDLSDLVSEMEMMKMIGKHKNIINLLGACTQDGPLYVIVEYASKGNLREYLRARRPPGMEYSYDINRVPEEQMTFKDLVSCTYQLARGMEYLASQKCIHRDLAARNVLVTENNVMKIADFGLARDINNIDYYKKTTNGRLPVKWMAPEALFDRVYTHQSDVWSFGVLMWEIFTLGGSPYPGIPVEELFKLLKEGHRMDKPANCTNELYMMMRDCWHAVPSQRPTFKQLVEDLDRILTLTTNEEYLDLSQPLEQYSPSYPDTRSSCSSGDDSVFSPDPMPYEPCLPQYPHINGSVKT
In assay [11] the target is full-length kinase/Nluc fusion proteins (Homo sapiens, UniProt P30291). The settings on record: WEE1 (NP_003381), Nluc orientation C; read-out: Probe EC50.
Sequence of full-length kinase/Nluc fusion proteins (Homo sapiens, UniProt P30291) (P30291 whole entry, the tested form may be a part): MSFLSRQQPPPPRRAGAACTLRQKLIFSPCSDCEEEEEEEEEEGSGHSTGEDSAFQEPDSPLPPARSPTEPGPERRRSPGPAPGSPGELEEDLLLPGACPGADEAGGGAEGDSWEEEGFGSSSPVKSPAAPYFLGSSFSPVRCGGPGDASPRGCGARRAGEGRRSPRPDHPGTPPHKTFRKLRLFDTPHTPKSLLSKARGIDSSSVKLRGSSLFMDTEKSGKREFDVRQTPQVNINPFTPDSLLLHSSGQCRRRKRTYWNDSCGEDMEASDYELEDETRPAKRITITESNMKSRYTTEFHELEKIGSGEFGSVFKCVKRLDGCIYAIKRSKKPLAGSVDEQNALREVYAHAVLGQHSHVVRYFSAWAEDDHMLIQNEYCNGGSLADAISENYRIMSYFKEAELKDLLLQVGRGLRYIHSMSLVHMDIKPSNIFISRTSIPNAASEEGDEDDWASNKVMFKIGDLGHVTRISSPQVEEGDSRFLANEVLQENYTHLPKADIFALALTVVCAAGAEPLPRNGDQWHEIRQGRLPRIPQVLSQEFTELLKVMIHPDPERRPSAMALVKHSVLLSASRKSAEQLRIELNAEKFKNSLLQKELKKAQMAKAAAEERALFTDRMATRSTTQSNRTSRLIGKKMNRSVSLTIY
Assay [12] concerns the target full-length kinase/Nluc fusion proteins (Homo sapiens, UniProt Q5S007). To be noted: LRRK2, Nluc C; read-out: Probe EC50.
In assay [13] the target is full-length kinase/Nluc fusion proteins (Homo sapiens, UniProt P80192). The settings on record: MAP3K9, Nluc N; read-out: Probe EC50.
Assay [14] concerns the target full-length kinase/Nluc fusion proteins (Homo sapiens, UniProt Q15831). To be noted: STK11 (NP_000446), Nluc orientation N; read-out: Probe EC50.
Assay [15] has as its target full-length kinase/Nluc fusion proteins (Homo sapiens, UniProt P50613). To be noted: CDK7, Nluc C; read-out: Probe EC50.
For assay [16], the target named is full-length kinase/Nluc fusion proteins (Homo sapiens, UniProt P49760). To be noted: CLK2, Nluc C; read-out: Probe EC50.
The target of assay [17] is full-length kinase/Nluc fusion proteins (Homo sapiens, UniProt O75716). To be noted: STK16 (NP_001317142), Nluc orientation N; read-out: Probe EC50.
Sequence of full-length kinase/Nluc fusion proteins (Homo sapiens, UniProt O75716) (O75716 whole entry, the tested form may be a part): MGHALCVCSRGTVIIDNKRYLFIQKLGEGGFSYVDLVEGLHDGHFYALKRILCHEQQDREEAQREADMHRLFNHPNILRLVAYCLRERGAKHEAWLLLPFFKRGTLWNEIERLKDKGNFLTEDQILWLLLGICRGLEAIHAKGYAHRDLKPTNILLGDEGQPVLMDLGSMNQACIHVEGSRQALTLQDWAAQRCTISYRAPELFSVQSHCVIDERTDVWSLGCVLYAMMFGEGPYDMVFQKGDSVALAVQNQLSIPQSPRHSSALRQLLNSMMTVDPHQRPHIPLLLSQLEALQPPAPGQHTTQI
In assay [18] the target is full-length kinase/Nluc fusion proteins (Homo sapiens, UniProt Q08881). To be noted: ITK, Nluc N; read-out: Probe EC50.
Assay [19] addresses full-length kinase/Nluc fusion proteins (Homo sapiens, UniProt P29597). To be noted: TYK2 (NP_003322), Nluc orientation C; read-out: Probe EC50.
For assay [20], the target named is full-length kinase/Nluc fusion proteins (Homo sapiens, UniProt P49759). To be noted: CLK1, Nluc N; read-out: Probe EC50.
Assay [21] addresses full-length kinase/Nluc fusion proteins (Homo sapiens, UniProt P45984). The settings on record: MAPK9, Nluc N; read-out: Probe EC50.
In assay [22] the target is full-length kinase/Nluc fusion proteins (Homo sapiens, UniProt O75676). The settings on record: RPS6KA4 (NP_001287731), Nluc orientation N; read-out: Probe EC50.
In assay [23] the target is full-length kinase/Nluc fusion proteins (Homo sapiens, UniProt P52333). To be noted: JAK3, Nluc C; read-out: Probe EC50.
Assay [24] has as its target full-length kinase/Nluc fusion proteins (Homo sapiens, UniProt P51955). The settings on record: NEK2, Nluc N; read-out: Probe EC50.
The target in assay [25] is full-length kinase/Nluc fusion proteins (Homo sapiens, UniProt Q06187). The settings on record: BTK, Nluc C; read-out: Probe EC50.
Assay [26] has as its target full-length kinase/Nluc fusion proteins (Homo sapiens, UniProt Q9Y6R4). To be noted: MAP3K4, Nluc C; read-out: Probe EC50.
The target in assay [27] is full-length kinase/Nluc fusion proteins (Homo sapiens, UniProt Q2M2I8). To be noted: AAK1, Nluc N; read-out: Probe EC50.
Assay [28] addresses full-length kinase/Nluc fusion proteins (Homo sapiens, UniProt P09619). To be noted: PDGFRB, Nluc C; read-out: Probe EC50.
Assay [29] deals with full-length kinase/Nluc fusion proteins (Homo sapiens, UniProt P07333). The settings on record: CSF1R, Nluc C; read-out: Probe EC50.
Assay [30] concerns the target full-length kinase/Nluc fusion proteins (Homo sapiens, UniProt Q13882). To be noted: PTK6, Nluc C; read-out: Probe EC50.
The target of assay [31] is full-length kinase/Nluc fusion proteins (Homo sapiens, UniProt Q07912). To be noted: TNK2 (NP_001010938), Nluc orientation C; read-out: Probe EC50.
Assay [32] concerns the target full-length kinase/Nluc fusion proteins (Homo sapiens, UniProt P29323). The settings on record: EPHB2, Nluc C; read-out: Probe EC50.

Sequence of full-length kinase/Nluc fusion proteins (Homo sapiens, UniProt P29323) (P29323 19-1055): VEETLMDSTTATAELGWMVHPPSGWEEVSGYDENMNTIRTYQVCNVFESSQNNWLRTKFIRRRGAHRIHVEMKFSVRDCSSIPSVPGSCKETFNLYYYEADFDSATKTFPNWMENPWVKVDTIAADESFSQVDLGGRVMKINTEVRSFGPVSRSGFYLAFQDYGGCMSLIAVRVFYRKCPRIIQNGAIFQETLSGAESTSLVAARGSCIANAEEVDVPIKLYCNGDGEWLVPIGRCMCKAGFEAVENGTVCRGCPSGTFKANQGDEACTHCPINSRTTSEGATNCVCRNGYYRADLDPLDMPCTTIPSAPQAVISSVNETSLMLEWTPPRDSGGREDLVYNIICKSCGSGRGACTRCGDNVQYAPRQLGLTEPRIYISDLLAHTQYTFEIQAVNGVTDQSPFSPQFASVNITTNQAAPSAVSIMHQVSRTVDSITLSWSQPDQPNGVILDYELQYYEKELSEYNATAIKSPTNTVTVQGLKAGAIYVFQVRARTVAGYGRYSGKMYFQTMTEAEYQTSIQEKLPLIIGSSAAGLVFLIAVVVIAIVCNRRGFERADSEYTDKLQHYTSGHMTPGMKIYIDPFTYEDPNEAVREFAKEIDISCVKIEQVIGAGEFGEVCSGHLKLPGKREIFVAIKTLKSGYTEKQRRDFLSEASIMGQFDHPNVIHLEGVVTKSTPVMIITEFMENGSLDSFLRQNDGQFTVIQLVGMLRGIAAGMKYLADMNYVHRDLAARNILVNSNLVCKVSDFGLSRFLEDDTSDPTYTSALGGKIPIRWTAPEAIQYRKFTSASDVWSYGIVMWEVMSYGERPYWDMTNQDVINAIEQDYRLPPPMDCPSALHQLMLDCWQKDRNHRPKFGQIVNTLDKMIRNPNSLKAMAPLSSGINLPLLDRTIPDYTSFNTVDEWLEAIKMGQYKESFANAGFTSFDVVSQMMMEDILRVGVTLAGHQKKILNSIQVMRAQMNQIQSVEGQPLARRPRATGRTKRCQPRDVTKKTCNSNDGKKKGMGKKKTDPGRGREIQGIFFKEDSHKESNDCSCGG
Sequence of full-length kinase/Nluc fusion proteins (Homo sapiens, UniProt P45984) (P45984 whole entry, the tested form may be a part): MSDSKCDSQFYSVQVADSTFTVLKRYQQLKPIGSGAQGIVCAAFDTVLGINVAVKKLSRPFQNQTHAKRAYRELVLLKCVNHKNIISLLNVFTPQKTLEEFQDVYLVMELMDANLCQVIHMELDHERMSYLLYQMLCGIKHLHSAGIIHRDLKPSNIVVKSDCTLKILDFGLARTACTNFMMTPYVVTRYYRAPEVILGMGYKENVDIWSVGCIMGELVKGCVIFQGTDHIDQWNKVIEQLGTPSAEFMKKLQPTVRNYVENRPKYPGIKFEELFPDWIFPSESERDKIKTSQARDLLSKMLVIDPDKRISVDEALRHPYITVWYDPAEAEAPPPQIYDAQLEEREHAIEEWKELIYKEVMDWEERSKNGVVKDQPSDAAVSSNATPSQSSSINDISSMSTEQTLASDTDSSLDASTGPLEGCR
Sequence of full-length kinase/Nluc fusion proteins (Homo sapiens, UniProt P50613) (P50613 whole entry, the tested form may be a part): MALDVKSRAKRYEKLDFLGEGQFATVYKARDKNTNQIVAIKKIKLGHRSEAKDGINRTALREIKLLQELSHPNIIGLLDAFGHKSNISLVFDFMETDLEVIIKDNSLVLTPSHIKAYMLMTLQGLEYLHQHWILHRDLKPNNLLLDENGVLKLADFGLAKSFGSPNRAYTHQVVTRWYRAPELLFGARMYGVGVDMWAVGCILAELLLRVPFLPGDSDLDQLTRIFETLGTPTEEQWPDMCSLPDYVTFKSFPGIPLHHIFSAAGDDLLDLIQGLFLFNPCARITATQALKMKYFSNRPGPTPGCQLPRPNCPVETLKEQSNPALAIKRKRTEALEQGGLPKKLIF

As to `CNC(=O)c1ccccc1Nc1nc(Nc2ccc(N3CCN(C(=O)CCOCCOCCOCCOCCNC(=O)CCc4ccc5n4[B-](F)(F)[N+]4=C(c6ccc[nH]6)C=CC4=C5)CC3)cc2)ncc1Cl` [Energy Transfer Probe 5, 2-((2-((4-(4-(1-amino-3,6,9,12-tetraoxapentadecan-15-oyl)piperazin-1-yl)phenyl)amino)-5-chloropyrimidin-4-yl)amino)-N-methylbenzamide-NanoBRET 590], the pEC50 is < 6.00 in [1]; < 6.00 in assay [2]; < 6.00 in assay [3]; 6.70 in assay [4]; < 6.00 in assay [5]; < 6.00 in assay [6]. The negative-log EC50 (pEC50) in assay [7] is < 6.00; in [8], < 6.00; in [9], < 6.00; in assay [10], 6.22; in assay [11], 7.30; in [12], < 6.00. In addition, the pEC50 in assay [13] is < 6.00; in [14] it was < 6.00; in assay [15], 6.52; in [16], < 6.00; in assay [17], 6.52; in assay [18] it was 7.40. The pEC50 is < 6.00 in assay [19]; < 6.00 in assay [20]; 6.30 in [21]; 7.00 in [22]; < 6.00 in assay [23]; < 6.00 in [24]. Besides, the results for the pEC50 in assay [25], in [26] and in assay [27] were 6.22, < 6.00 and < 6.00, respectively.

Turning to `Cc1nc(Nc2ncc(C(=O)Nc3c(C)cccc3Cl)s2)cc(N2CCN(CCOCCNC(=O)CCc3ccc4n3[B-](F)(F)[N+]3=C(c5ccc[nH]5)C=CC3=C4)CC2)n1` [Energy Transfer Probe 6, 2-((6-(4-(2-(2-aminoethoxy)ethyl)piperazin-1-yl)-2-methylpyrimidin-4-yl)amino)-N-(2-chloro-6-methylphenyl)thiazole-5-carboxamide-NanoBRET 590], the pEC50 in assay [28] is 6.70; in assay [29], 6.70; in [30] it was 6.70; in assay [31], 7.00; in assay [32], 7.70.

The pEC50 is −log10 of the EC50, conventionally taken in molar units.
